Measured values reported in the NIST ThermoML archive (doi:10.1016/j.tca.2019.178383).

Assay: xn = mol fraction of the nth substance listed
Settings: for surface tension liquid-gas: Maximal bubble pressure; for mass density: 100 kPa, Liquid, Vibrating tube method

CCn1cc[n+](CCOC)c1.O=S(=O)([O-])C(F)(F)F + CCCO
Settings	mass density [kg/m3]	surface tension liquid-gas [mN/m]
288.15 K, x1 = 0.0987	944.376	23.4
288.15 K, x1 = 0.1999	1043.54	24.2
288.15 K, x1 = 0.2982	1114.64	25
288.15 K, x1 = 0.3994	1171.5	26.2
288.15 K, x1 = 0.499	1215.82	27.7
288.15 K, x1 = 0.5993	1252.38	29.5
288.15 K, x1 = 0.6979	1282.09	31.5
288.15 K, x1 = 0.8009	1308.48	33
288.15 K, x1 = 0.8992	1329.95	34.8
288.15 K, x1 = 1	1348.94	36.3
293.15 K, x1 = 0.0987	940.25	23.1
293.15 K, x1 = 0.1999	1039.33	23.8
293.15 K, x1 = 0.2982	1110.4	24.7
293.15 K, x1 = 0.3994	1167.24	25.9
293.15 K, x1 = 0.499	1211.56	27.4
293.15 K, x1 = 0.5993	1248.12	29.2
293.15 K, x1 = 0.6979	1277.83	31.3
293.15 K, x1 = 0.8009	1304.21	32.7
293.15 K, x1 = 0.8992	1325.68	34.6
293.15 K, x1 = 1	1344.66	36.1
298.15 K, x1 = 0.0987	936.122	22.7
298.15 K, x1 = 0.1999	1035.12	23.5
298.15 K, x1 = 0.2982	1106.16	24.3
298.15 K, x1 = 0.3994	1162.99	25.5
298.15 K, x1 = 0.499	1207.32	27.1
298.15 K, x1 = 0.5993	1243.87	28.9
298.15 K, x1 = 0.6979	1273.58	31
298.15 K, x1 = 0.8009	1299.97	32.5
298.15 K, x1 = 0.8992	1321.43	34.4
298.15 K, x1 = 1	1340.41	35.8
303.15 K, x1 = 0.0987	931.974	22.4
303.15 K, x1 = 0.1999	1030.91	23.1
303.15 K, x1 = 0.2982	1101.93	24
303.15 K, x1 = 0.3994	1158.75	25.1
303.15 K, x1 = 0.499	1203.08	26.7
303.15 K, x1 = 0.5993	1239.64	28.6
303.15 K, x1 = 0.6979	1269.36	30.7
303.15 K, x1 = 0.8009	1295.75	32.2
303.15 K, x1 = 0.8992	1317.21	34.2
303.15 K, x1 = 1	1336.17	35.5
308.15 K, x1 = 0.0987	927.821	22.1
308.15 K, x1 = 0.1999	1026.69	22.7
308.15 K, x1 = 0.2982	1097.7	23.6
308.15 K, x1 = 0.3994	1154.52	24.8
308.15 K, x1 = 0.499	1198.86	26.4
308.15 K, x1 = 0.5993	1235.43	28.3
308.15 K, x1 = 0.6979	1265.15	30.4
308.15 K, x1 = 0.8009	1291.54	32
308.15 K, x1 = 0.8992	1313	33.9
308.15 K, x1 = 1	1331.96	35.3
313.15 K, x1 = 0.0987	923.647	21.7
313.15 K, x1 = 0.1999	1022.48	22.4
313.15 K, x1 = 0.2982	1093.47	23.2
313.15 K, x1 = 0.3994	1150.29	24.5
313.15 K, x1 = 0.499	1194.66	26.1
313.15 K, x1 = 0.5993	1231.23	28
313.15 K, x1 = 0.6979	1260.96	30
313.15 K, x1 = 0.8009	1287.35	31.7
313.15 K, x1 = 0.8992	1308.81	33.7
313.15 K, x1 = 1	1327.77	35.1
318.15 K, x1 = 0.0987	919.45	21.3
318.15 K, x1 = 0.1999	1018.44	22.1
318.15 K, x1 = 0.2982	1089.25	22.8
318.15 K, x1 = 0.3994	1146.1	24.2
318.15 K, x1 = 0.499	1190.46	25.8
318.15 K, x1 = 0.5993	1227.04	27.8
318.15 K, x1 = 0.6979	1256.78	29.7
318.15 K, x1 = 0.8009	1283.18	31.4
318.15 K, x1 = 0.8992	1304.63	33.5
318.15 K, x1 = 1	1323.6	34.9
